Measurements: patent publication US20240418703A1, “CULTURE MEDIUM FOR PRIMARY OVARIAN CANCER CELLS, CULTURE METHOD AND APPLICATION THEREOF” (PRECEDO PHARMACEUTICALS CO., LTD, priority 2021, published 2024)
Read-outs that look alike come from different tables or passages of the source.

Experiments:
[1] = test system: primary ovarian cancer cells; assay: Effect of single additives in Basal Medium on proliferation of primary ovarian cancer cells (cell counting); format: cell-based, human; parameters: key: +: compared with the Basal Medium, the culture medium added with the additive(s) has the effect of promoting the proliferation of two cases of primary ovarian cancer cells isolated from ovarian cancer tissue; −: the culture medium added with the additive(s) has the effect of promoting the proliferation of one case of primary ovarian cancer cells isolated from ovarian cancer tissue; the culture medium added with the additive(s) has no significant effect on the proliferation of at least two cases of primary ovarian cancer cells isolated from ovarian cancer tissue
Description: First, a Basal Medium containing initial medium was prepared. The initial medium may be selected from the group consisting of DMEM/F12, DMEM, F12, or RPMI-1640 commonly used in the art. In this example, the formulation of the Basal Medium is: DMEM/F12 medium (purchased from Corning)+100 μg/mL Primocin (purchased from InvivoGen, 0.2% (v/v), commercial product has a concentration of 50 mg/mL). Different types of additives (see Table 1) were added to the Basal Medium to prepare culture mediums for primary ovarian cancer cells with different components.
Tissue samples (intraoperative) of ovarian cancer solid tumor were obtained from patients by professional medical practitioner of professional medical institutions, and all patients have signed the informed consent. Intraoperative samples having the size of 0.25 cm^3, endoscopic samples having the size of 0.025 cm^3 were stored and transported using commercial tissue preservation solution (manufacturer: Miltenyi Biotec).
Tissue digestion solution: 1640 medium (Corning, 10-040-CVR), collagenase II (2 mg/mL), collagenase IV (2 mg/mL), DNase (50 U/mL), hyaluronidase (0.75 mg/mL), calcium chloride (3.3 mM), BSA (10 mg/mL).
• 3.1. Tissue samples were transferred from the ultra-clean workbench to a culture dish, and the tissue with blood was removed. The tissue samples were rinsed twice with Basal Medium, and then were transferred to another culture dish and mechanically cut with a sterile scalpel into tissue blocks of 1×1×1 mm^3 in size. • 3.2. The cut intraoperative tissues were aspirated into a 15 mL centrifuge tube, to which 5 mL of Basal Medium was added, fully mixed, and then centrifuged at 1500 rpm for 4 minutes. • 3.3. The supernatant was discarded, and the resultant was added with 1:3 mixture of Basal Medium and tissue digestion solution (the amount of tissue digestion solution added was about 10 mL tissue digestion solution for 1 g of tumor tissue). The samples were marked with names and numbers, sealed with sealing film, and then digested in a shaker (Zhichu Instrument ZQLY-180N) at 37° C., 300 rpm. The completion of digestion was determined via observation every 30 minutes, based on the existing of visible particles or not. The digestion time was 4 hours. • 3.4. After the digestion was completed, undigested tissue mass was filtered out through a […] filter mash. The tissue mass on the filter mash was rinsed into the centrifuge tube with Basal Medium to reduce cell loss. The resultant was centrifuged at 25° C., 1500 rpm for 4 minutes. • 3.5. […] If there were blood cells, 8 mL blood cell lysate (purchased from Sigma) was added in the resultant and fully mixed, lysed at 4° C. for 20 minutes, with inverting and mixing once during the process. The resultant was centrifuged at 25° C., 1500 rpm for 4 minutes. • 3.6. The supernatant was discarded and 2 mL Basal Medium was added to resuspend the cells for reserve.
• 4.1. Microscopic observation: a small amount of resuspended cells were plated in a culture dish, and the density and morphology of cancer cells were observed under a microscope (CNOPTEC, BDS400); • 4.2. Viable cell counting: 12 μL of the resuspended cell suspension was fully mixed with 12 μL of trypan blue staining solution (Sangon Biotech (Shanghai) Co., Ltd.), and then 20 μL of the mixture was added into a cell counting plate (Countstar, specifications: 50 pieces/box).
The primary ovarian cancer cells isolated from 2 cases of ovarian cancer tissues (numbered L40 and LQQ) according to the above step (2) were resuspended in the culture medium in Table 1, respectively and the cell number was counted. The Basal Medium was mixed with matrigel (Corning®, 356231) in a 50:1 ratio on ice. 300 μL of the mixture was plated and incubated in a 5% CO2 incubator at 37° C. for 25-35 minutes, preferably 30 minutes. The supernatant was discarded. […]

[2] = test system: primary ovarian cancer cells; assay: Effect of different concentrations of added factors on proliferation of primary ovarian cancer cells (ratio to Blank Control); format: cell-based, human
[3] = additive in Basal Medium at the final concentration, samples L40 and LQQ, 7-10 days of culture, versus Basal Medium
[4] = factor added to the medium lacking it, FIGS. 2A-2L
[5] = samples A26083, L56, L62, FIGS. 2A-2L

Question: How did the “Level of promoting proliferation” value [1, 3] turn out when Cc1c[nH]c(-c2cnc(NCCNc3ccc(C#N)cn3)nc2-c2ccc(Cl)cc2Cl)n1 [CHIR99021, reference compound] was run?
Answer: ○

Question: With CN1C(=O)C(c2c(F)cccc2F)N(C)c2nc(Nc3ccc(S(N)(=O)=O)cc3)ncc21 (centres unmarked) [Compound 1, 4-((7-(2,6-Difluorophenyl)-5,8-dimethyl-6-oxo-5,6,7,8-tetrahydropteridin-2-yl)amino)benzsulfamide] as the molecule, how does the “Level of promoting proliferation” value [1, 3] read?
Answer: +

Question: And the “concentration at which the cell proliferation effect is most significant” value [2, 4]?
Answer: 5 µM

Question: What about the “proliferation-promoting effect on primary ovarian cancer cells” value (from here on “proliferation-promoting effect”) [2, 5] of the same molecule?
Answer: significant proliferation-promoting effect

Question: For Cc1cccc(-c2nn(C(=S)Nc3ccccc3)cc2-c2ccnc3ccccc23)n1 [Compound A8301, A8301, reference compound], which “Level of promoting proliferation” value [1, 3] is on record?
Answer: ○

Question: What does the source list for C[C@@H](N)[C@H]1CC[C@H](C(=O)Nc2ccncc2)CC1 [Compound Y-27632, Y-27632, reference compound]?
Answer: Level of promoting proliferation [1, 3]: +; concentration at which the cell proliferation effect is most significant [2, 4]: 5 µM; proliferation-promoting effect on primary ovarian cancer cells [2, 5]: significant proliferation-promoting effect

Question: For Oc1ccc(-c2nc(-c3ccncc3)c(-c3ccc(F)cc3)[nH]2)cc1 [SB202190, reference compound], which “Level of promoting proliferation” value [1, 3] is on record?
Answer: ○

Question: With NC(=O)c1ccc(-c2nc(-c3ccc4c(c3)OCO4)c(-c3ccccn3)[nH]2)cc1 [SB431542, reference compound] as the molecule, how does the “Level of promoting proliferation” value [1, 3] read?
Answer: ○

Question: For C[C@]12CCC(=O)C=C1CC[C@@H]1[C@@H]2[C@@H](O)C[C@@]2(C)[C@H]1CC[C@]2(O)C(=O)CO [hydrocortisone, reference compound], which “Level of promoting proliferation” value [1, 3] is on record?
Answer: ○

Question: For NC(=O)c1cccnc1 [nicotinamide, reference compound], which “Level of promoting proliferation” value [1, 3] is on record?
Answer: ○

Question: Which results are given for CCCCC[C@H](O)/C=C/[C@H]1[C@H](O)CC(=O)[C@@H]1C/C=C\CCCC(=O)O [prostaglandin E2, reference compound]?
Answer: Level of promoting proliferation [1, 3]: −; concentration at which the cell proliferation effect is most significant [2, 4]: 2.5 µM; proliferation-promoting effect on primary ovarian cancer cells [2, 5]: significant proliferation-promoting effect

Question: With CC(=O)C(=O)[O-].[Na+] [sodium pyruvate, reference compound] as the molecule, how does the “Level of promoting proliferation” value [1, 3] read?
Answer: ○

Question: With basic fibroblast growth factor as the molecule, how does the “Level of promoting proliferation” value [1, 3] read?
Answer: ○

Question: Which “Level of promoting proliferation” value [1] does the source give for cholera toxin here?
Answer: +

Question: And the “concentration at which the cell proliferation effect is most significant” value [2]?
Answer: 0.1 µg/mL

Question: And the “more preferable amount according to the results of this example” value [2]?
Answer: 0.05 to 0.2 µg/mL

Question: What about the “preferable amount according to the results of this example” value [2] of the same molecule?
Answer: 50 to 800 ng/mL

Question: And the “proliferation-promoting effect” value [2]?
Answer: significant proliferation-promoting effect

Question: Which results are given for epidermal growth factor?
Answer: Level of promoting proliferation [1, 3]: −; preferable amount according to the results of this example ([2]; preferably, FIGS. 2A-2L): 2.5 to 40 ng/mL; proliferation-promoting effect on primary ovarian cancer cells [2, 5]: significant proliferation-promoting effect

Question: Which “Level of promoting proliferation” value [1, 3] does the source give for hepatocyte growth factor here?
Answer: ○

Question: Which “Level of promoting proliferation” value [1, 3] does the source give for insulin here?
Answer: +

Question: What about the “concentration at which the cell proliferation effect is most significant” value [2, 4] of the same molecule?
Answer: 9 µg/mL

Question: And the “more preferable amount according to the results of this example” value ([2]; more preferably, FIGS. 2A-2L)?
Answer: 3 to 9 µg/mL

Question: What about the “proliferation-promoting effect” value [2, 5] of the same molecule?
Answer: significant proliferation-promoting effect

Question: For insulin-like growth factor-1, which “Level of promoting proliferation” value [1, 3] is on record?
Answer: +

Question: What about the “concentration at which the cell proliferation effect is most significant” value [2, 4] of the same molecule?
Answer: 0.05 µg/mL

Question: What about the “preferable amount according to the results of this example” value ([2]; preferably, FIGS. 2A-2L) of the same molecule?
Answer: 25 to 100 ng/mL

Question: What about the “proliferation-promoting effect” value [2, 5] of the same molecule?
Answer: significant proliferation-promoting effect

Question: Which “Level of promoting proliferation” value [1, 3] does the source give for neuregulin −1 here?
Answer: ○

Question: Which “Level of promoting proliferation” value [1, 3] does the source give for vitamin E [reference compound] here?
Answer: ○

B1: fibroblast growth factors 7 (protein, UniProt P21781 32-194, looked up)
Fibroblast growth factor 7: CNDMTPEQMATNVNCSSPERHTRSYDYMEGGDIRVRRLFCRTQWYLRIDKRGKVKGTQEMKNNYNIMEIRTVAVGIVAIKGVESEFYLAMNKEGKLYAKKECNEDCNFKELILENHYNTYASAKWTHNGGEMFVALNQKGIPVRGKKTKKEQKTAHFLPMAIT
notes: medium additive, supplier R&D
Question: B1 was tested. Which “Level of promoting proliferation” value [1, 3] did it give?
Answer: ○

B2: amphiregulin (protein, UniProt P15514 101-187, looked up)
Amphiregulin: SVRVEQVVKPPQNKTESENTSDKPKRKKKGGKNGKNRRNRKKKNPCNAEFQNFCIHGECKYIEHLEAVTCKCQQEYFGERCGEKSMK
modifications: Amphiregulin
notes: medium additive, supplier MCE
Question: Which results are given for B2?
Answer: Level of promoting proliferation [1, 3]: +; concentration at which the cell proliferation effect is most significant [2, 4]: 0.003 µg/mL; preferable amount according to the results of this example ([2]; preferably, FIGS. 2A-2L): 1 to 81 ng/mL; proliferation-promoting effect on primary ovarian cancer cells [2, 5]: significant proliferation-promoting effect

B3: human fibroblast growth factor −10 (protein, UniProt O15520 38-208, looked up)
Fibroblast growth factor 10: QALGQDMVSPEATNSSSSSFSSPSSAGRHVRSYNHLQGDVRWRKLFSFTKYFLKIEKNGKVSGTKKENCPYSILEITSVEIGVVAVKAINSNYYLAMNKKGKLYGSKEFNNDCKLKERIEENGYNTYASFNWQHNGRQMYVALNGKGAPRRGQKTRRKNTSAHFLPMVVHS
notes: medium additive, supplier sino biological
Question: Which “Level of promoting proliferation” value [1, 3] does the source give for B3 here?
Answer: ○

B4: noggin (protein, UniProt Q13253 28-232, looked up)
Noggin: QHYLHIRPAPSDNLPLVDLIEHPDPIFDPKEKDLNETLLRSLLGGHYDPGFMATSPPEDRPGGGGGAAGGAEDLAELDQLLRQRPSGAMPSEIKGLEFSEGLAQGKKQRLSKKLRRKLQMWLWSQTFCPVLYAWNDLGSRFWPRYVKVGSCFSKRSCSVPEGMVCKPSKSVHLTVLRWRCQRRGGQRCGWIPIQYPIISECKCSC
notes: medium additive, supplier R&D
Question: B4 was tested. Which “Level of promoting proliferation” value [1, 3] did it give?
Answer: ○

B5: R-spondin1 (protein, UniProt Q2MKA7 21-263, looked up)
R-spondin-1: SRGIKGKRQRRISAEGSQACAKGCELCSEVNGCLKCSPKLFILLERNDIRQVGVCLPSCPPGYFDARNPDMNKCIKCKIEHCEACFSHNFCTKCKEGLYLHKGRCYPACPEGSSAANGTMECSSPAQCEMSEWSPWGPCSKKQQLCGFRRGSEERTRRVLHAPVGDHAACSDTKETRRCTVRRVPCPEGQKRRKGGQGRRENANRNLARKESKEAGAGSRRRKGQQQQQQQGTVGPLTSAGPA
notes: medium additive, supplier R&D
Question: With B5 as the molecule, how does the “Level of promoting proliferation” value [1, 3] read?
Answer: ○
